Laboratory results: the NIST ThermoML archive (doi:10.1021/acs.jced.6b00121)

Experiment: xn = mol fraction of the nth substance listed
Conditions: 100 kPa, Liquid; for viscosity: Falling or rolling sphere viscometry; for mass density: Vibrating tube method

CCCCCCCCCCC [undecane] + CCCCO
Conditions | mass density [kg/m3] | viscosity [mPa·s]
283.15 K, x1 = 0.1007 | 801.8 | 3.124
283.15 K, x1 = 0.2004 | 790.28 | 2.611
283.15 K, x1 = 0.299 | 781.12 | 2.24
283.15 K, x1 = 0.3981 | 773.6 | 1.939
283.15 K, x1 = 0.5006 | 767.02 | 1.722
283.15 K, x1 = 0.5964 | 761.98 | 1.582
283.15 K, x1 = 0.6982 | 757.32 | 1.471
283.15 K, x1 = 0.7979 | 753.51 | 1.416
283.15 K, x1 = 0.9 | 750.22 | 1.385
283.15 K, x1 = 1 | 747.78 | 1.371
288.15 K, x1 = 0.1007 | 798.03 | 2.731
288.15 K, x1 = 0.2004 | 786.48 | 2.294
288.15 K, x1 = 0.299 | 777.31 | 1.978
288.15 K, x1 = 0.3981 | 769.79 | 1.723
288.15 K, x1 = 0.5006 | 763.23 | 1.541
288.15 K, x1 = 0.5964 | 758.18 | 1.425
288.15 K, x1 = 0.6982 | 753.56 | 1.329
288.15 K, x1 = 0.7979 | 749.76 | 1.287
288.15 K, x1 = 0.9 | 746.49 | 1.26
288.15 K, x1 = 1 | 744.06 | 1.249
293.15 K, x1 = 0.1007 | 794.24 | 2.398
293.15 K, x1 = 0.2004 | 782.67 | 2.025
293.15 K, x1 = 0.299 | 773.49 | 1.755
293.15 K, x1 = 0.3981 | 765.96 | 1.54
293.15 K, x1 = 0.5006 | 759.41 | 1.387
293.15 K, x1 = 0.5964 | 754.38 | 1.29
293.15 K, x1 = 0.6982 | 749.77 | 1.212
293.15 K, x1 = 0.7979 | 746 | 1.176
293.15 K, x1 = 0.9 | 742.75 | 1.152
293.15 K, x1 = 1 | 740.35 | 1.145
298.15 K, x1 = 0.1007 | 790.42 | 2.115
298.15 K, x1 = 0.2004 | 778.83 | 1.795
298.15 K, x1 = 0.299 | 769.63 | 1.564
298.15 K, x1 = 0.3981 | 762.11 | 1.383
298.15 K, x1 = 0.5006 | 755.57 | 1.254
298.15 K, x1 = 0.5964 | 750.55 | 1.173
298.15 K, x1 = 0.6982 | 745.97 | 1.108
298.15 K, x1 = 0.7979 | 742.22 | 1.077
298.15 K, x1 = 0.9 | 739 | 1.058
298.15 K, x1 = 1 | 736.64 | 1.062
303.15 K, x1 = 0.1007 | 786.57 | 1.871
303.15 K, x1 = 0.2004 | 774.95 | 1.595
303.15 K, x1 = 0.299 | 765.75 | 1.392
303.15 K, x1 = 0.3981 | 758.22 | 1.248
303.15 K, x1 = 0.5006 | 751.7 | 1.139
303.15 K, x1 = 0.5964 | 746.69 | 1.071
303.15 K, x1 = 0.6982 | 742.14 | 1.016
303.15 K, x1 = 0.7979 | 738.42 | 0.991
303.15 K, x1 = 0.9 | 735.23 | 0.975
303.15 K, x1 = 1 | 732.93 | 0.982
308.15 K, x1 = 0.1007 | 782.69 | 1.663
308.15 K, x1 = 0.2004 | 771.05 | 1.426
308.15 K, x1 = 0.299 | 761.84 | 1.253
308.15 K, x1 = 0.3981 | 754.31 | 1.13
308.15 K, x1 = 0.5006 | 747.8 | 1.038
308.15 K, x1 = 0.5964 | 742.82 | 0.979
308.15 K, x1 = 0.6982 | 738.3 | 0.936
308.15 K, x1 = 0.7979 | 734.6 | 0.915
308.15 K, x1 = 0.9 | 731.45 | 0.902
308.15 K, x1 = 1 | 729.23 | 0.91
313.15 K, x1 = 0.1007 | 778.77 | 1.483
313.15 K, x1 = 0.2004 | 767.1 | 1.279
313.15 K, x1 = 0.299 | 757.88 | 1.131
313.15 K, x1 = 0.3981 | 750.36 | 1.028
313.15 K, x1 = 0.5006 | 743.87 | 0.95
313.15 K, x1 = 0.5964 | 738.91 | 0.901
313.15 K, x1 = 0.6982 | 734.42 | 0.864
313.15 K, x1 = 0.7979 | 730.76 | 0.847
313.15 K, x1 = 0.9 | 727.65 | 0.837
313.15 K, x1 = 1 | 725.53 | 0.847
318.15 K, x1 = 0.1007 | 774.8 | 1.326
318.15 K, x1 = 0.2004 | 763.11 | 1.152
318.15 K, x1 = 0.299 | 753.88 | 1.026
318.15 K, x1 = 0.3981 | 746.37 | 0.938
318.15 K, x1 = 0.5006 | 739.91 | 0.882
318.15 K, x1 = 0.5964 | 734.97 | 0.832
318.15 K, x1 = 0.6982 | 730.51 | 0.801
318.15 K, x1 = 0.7979 | 726.89 | 0.787
318.15 K, x1 = 0.9 | 723.83 | 0.779
318.15 K, x1 = 1 | 721.82 | 0.79
323.15 K, x1 = 0.1007 | 770.78 | 1.192
323.15 K, x1 = 0.2004 | 759.07 | 1.042
323.15 K, x1 = 0.299 | 749.84 | 0.934
323.15 K, x1 = 0.3981 | 742.34 | 0.858
323.15 K, x1 = 0.5006 | 735.91 | 0.804
323.15 K, x1 = 0.5964 | 731 | 0.771
323.15 K, x1 = 0.6982 | 726.58 | 0.749
323.15 K, x1 = 0.7979 | 722.99 | 0.733
323.15 K, x1 = 0.9 | 719.99 | 0.727
323.15 K, x1 = 1 | 718.11 | 0.74
328.15 K, x1 = 0.1007 | 766.71 | 1.074
328.15 K, x1 = 0.2004 | 754.97 | 0.945
328.15 K, x1 = 0.299 | 745.75 | 0.853
328.15 K, x1 = 0.3981 | 738.26 | 0.79
328.15 K, x1 = 0.5006 | 731.86 | 0.744
328.15 K, x1 = 0.5964 | 726.99 | 0.716
328.15 K, x1 = 0.6982 | 722.61 | 0.693
328.15 K, x1 = 0.7979 | 719.07 | 0.685
328.15 K, x1 = 0.9 | 716.13 | 0.68
328.15 K, x1 = 1 | 714.39 | 0.692
333.15 K, x1 = 0.1007 | 762.58 | 0.974
333.15 K, x1 = 0.2004 | 750.83 | 0.86
333.15 K, x1 = 0.299 | 741.61 | 0.782
333.15 K, x1 = 0.3981 | 734.14 | 0.729
333.15 K, x1 = 0.5006 | 727.78 | 0.69
333.15 K, x1 = 0.5964 | 722.94 | 0.667
333.15 K, x1 = 0.6982 | 718.61 | 0.647
333.15 K, x1 = 0.7979 | 715.12 | 0.641
333.15 K, x1 = 0.9 | 712.24 | 0.638
333.15 K, x1 = 1 | 710.68 | 0.651
338.15 K, x1 = 0.1007 | 758.39 | 0.882
338.15 K, x1 = 0.2004 | 746.61 | 0.785
338.15 K, x1 = 0.299 | 737.42 | 0.719
338.15 K, x1 = 0.3981 | 729.97 | 0.675
338.15 K, x1 = 0.5006 | 723.65 | 0.641
338.15 K, x1 = 0.5964 | 718.86 | 0.622
338.15 K, x1 = 0.6982 | 714.57 | 0.606
338.15 K, x1 = 0.7979 | 711.13 | 0.602
338.15 K, x1 = 0.9 | 708.34 | 0.601
338.15 K, x1 = 1 | 706.95 | 0.615
343.15 K, x1 = 0.1007 | 754.12 | 0.802
343.15 K, x1 = 0.2004 | 742.34 | 0.72
343.15 K, x1 = 0.299 | 733.15 | 0.663
343.15 K, x1 = 0.3981 | 725.75 | 0.626
343.15 K, x1 = 0.5006 | 719.48 | 0.598
343.15 K, x1 = 0.5964 | 714.72 | 0.582
343.15 K, x1 = 0.6982 | 710.49 | 0.569
343.15 K, x1 = 0.7979 | 707.12 | 0.566
343.15 K, x1 = 0.9 | 704.41 | 0.567
343.15 K, x1 = 1 | 703.22 | 0.58
348.15 K, x1 = 0.1007 | 749.78 | 0.732
348.15 K, x1 = 0.2004 | 738.01 | 0.662
348.15 K, x1 = 0.299 | 728.84 | 0.614
348.15 K, x1 = 0.3981 | 721.47 | 0.583
348.15 K, x1 = 0.5006 | 715.24 | 0.56
348.15 K, x1 = 0.5964 | 710.54 | 0.546
348.15 K, x1 = 0.6982 | 706.38 | 0.535
348.15 K, x1 = 0.7979 | 703.07 | 0.534
348.15 K, x1 = 0.9 | 700.47 | 0.536
348.15 K, x1 = 1 | 699.47 | 0.549
353.15 K, x1 = 0.1007 | 745.37 | 0.671
353.15 K, x1 = 0.2004 | 733.6 | 0.611
353.15 K, x1 = 0.299 | 724.46 | 0.57
353.15 K, x1 = 0.3981 | 717.14 | 0.544
353.15 K, x1 = 0.5006 | 710.97 | 0.525
353.15 K, x1 = 0.5964 | 706.32 | 0.514
353.15 K, x1 = 0.6982 | 702.22 | 0.506
353.15 K, x1 = 0.7979 | 698.99 | 0.505
353.15 K, x1 = 0.9 | 696.51 | 0.508
353.15 K, x1 = 1 | 695.72 | 0.522
358.15 K, x1 = 0.1007 | 740.87 | 0.617
358.15 K, x1 = 0.2004 | 729.1 | 0.565
358.15 K, x1 = 0.299 | 720.01 | 0.531
358.15 K, x1 = 0.3981 | 712.73 | 0.51
358.15 K, x1 = 0.5006 | 706.63 | 0.493
358.15 K, x1 = 0.5964 | 702.04 | 0.485
358.15 K, x1 = 0.6982 | 698.02 | 0.477
358.15 K, x1 = 0.7979 | 694.88 | 0.479
358.15 K, x1 = 0.9 | 692.52 | 0.483
358.15 K, x1 = 1 | 691.96 | 0.497
363.15 K, x1 = 0.1007 | 736.28 | 0.569
363.15 K, x1 = 0.2004 | 724.55 | 0.525
363.15 K, x1 = 0.299 | 715.49 | 0.497
363.15 K, x1 = 0.3981 | 708.28 | 0.479
363.15 K, x1 = 0.5006 | 702.24 | 0.465
363.15 K, x1 = 0.5964 | 697.72 | 0.458
363.15 K, x1 = 0.6982 | 693.78 | 0.452
363.15 K, x1 = 0.7979 | 690.73 | 0.455
363.15 K, x1 = 0.9 | 688.52 | 0.46
363.15 K, x1 = 1 | 688.18 | 0.475
